Source: patent US4748161A, “Triterpenyl esters of organic acids and hypolipidemic agents composed of them” (Amano Pharmaceutical Co., Ltd., priority 1984, dated 1988)
Like-named read-outs stand apart in the source and are kept apart here.

Assays:
[1] = Body weight of rats in method B; set-up: species or system male Wistar strain rats; conditions: rat, in vivo
Method: (§1) Male Wistar strain rats (100±1 g, each 8 rats were formed into a group except that the control group fed with a hyperlipidemic diet was formed of 16 rats) were used as test animals. A powdery diet (CE-2, supplied by Clea Japan, Inc.) was used as ordinary diet. The hyperlipidemic diet was prepared by fortifying the ordinary diet with cholesterol (1%) and cholic acid (0.5%). Each test compound (1%) for administration was admixed with the hyperlipidemic diet. Each two rats were kept in a cage and given the prescribed diet and water ad libitum. Thus the rats were fed for 4 weeks at a constant temperature of 23±1° C. and a constant R.H. of 55±5%. Finally, the rats were fasted from food except water for 16 hours (from 4 p.m. of the 28th test day to 8 a.m. of the 29th test day), and under anesthesia with pentbarbital sodium (tradename: Nembutal), blood was taken from each rat through the descending abdominal arota. Then, TC, HDL-C, TG, PL, and LPO in the serum were measured in the following manner.

[2] = test system: serum lipids and serum lipid hydroperoxide; assay: Pharmacological test method B for anti-hyperlipidemic activity (serum lipids, 4 weeks feeding); format: in vivo, male Wistar strain rats; set-up: AI Diff.: unit not given here; conditions: for AI [(TC - HDL-C)/(HDL-C)] / HDL-C in serum / LPO in serum / PL in serum / TC in serum / TG in serum: 1% in hyperlipidemic diet, 4 weeks; for change in vivo at 1 % in diet: Rattus norvegicus, po, 672 h; for change in vivo at 1 % in diet / AI Diff. / HDL-C Diff. / LPO Diff. / PL Diff. / TC % of diff. / TC Diff. / TG Diff.: versus control group; for HDL-C rise compared with normal diet group: versus normal diet group
Method: Pharmacological test method B for anti-hyperlipidemic acitivity (the term "method B" was used in the present specification)
as §1
A TC kit-K (supplied by Nippon Shoji Kaisha, Ltd.) was used. The principle of this determination is as follows: The ester of cholesterol in the serum is hydrolyzed with cholesterol-ester hydrolase into free cholesterol and fatty acids. All the free cholesterol is oxidized with cholesterol oxydase to form Δ^4 -cholestenone and hydrogen peroxide. Phenol and 4-aminoantipyrin are oxidatively condensed together by the formed hydrogen peroxide and peroxydase. The produced red quinone coloring matter is measured by colorimetry for absorbance at 500 nm using a spectrophotometer, thereby determining the TC:
The color-developing liquid (3.0 ml) is well mixed with the sample serum (0.02 ml). The mixture once heated at 37° C. for 15 minutes, is measured for absorbance at 500 nm with a spectrophotometer. The found absorbance is denoted by EA. On the other hand, the color-developing liquid (3.0 ml) is well mixed with the standard solution. The mixture is treated and measured for absorbance at 500 nm in the same manner as the above. This found absorbance is denoted by ES. Both EA and ES are determined with reference to the value of the blank test conducted using the color-developing liquid (3.0 ml) alone. [formula]
An HDL-C kit-N (supplied by Nippon Shoji Kaisha, Ltd.) was used. […] (VLDL) and lo density lipoprotein (LDL) in the serum is precipitated by the action of heparin. The precipitate is separated by centrifugation. High density lipoprotein (HDL) is dissolved in the separated supernatant. Esters of cholesterol in this fraction is hydrolyzed with cholesterol-ester hydrolase into free cholesterol and fatty acids. All the free cholesterol is oxidized with cholesterol oxydase to form Δ^4 -cholestenone and hydrogen peroxide. Phenol and 4-aminoantipyrine are oxidatively condensed together by the formed hydrogen peroxide and peroxydase. The produced red quinone coloring matter is measured by colorimetry for absorbance at 500 nm using a spectrophotometer, thereby determining the HDL-C.
A PL kit-K (supplied by Nippon Shoji Kaisha, Ltd.) was used for the determination. Lecithin, sphingomyelin, and lysolecithin are decomposed by phospholipase D into choline and phosphatidic acid, N-acylsphingosyl phosphate, or lysophosphatidic acid, respectively. The resulting choline is quantitatively decomposed by choline oxydase into hydrogen peroxide and betaine. With this hydrogen peroxide, and aid of peroxydase, phenol and 4-aminoantipyrin are condensed into red quinone pigment, then the absorbance at 500 nm of which is measured with a spectrophotometer, thereby determining the PL. […]

Row | SMILES | Body weight during feed period, 1st day [1] | Body weight during feed period, 8th day [1] | Body weight during feed period, 15th day [1] | Body weight during feed period, 22nd day [1] | Body weight during feed period, 28th day [1] | Body weight just before blood sampling, 29th day [1] | AI [(TC - HDL-C)/(HDL-C)] [2] | HDL-C in serum [2] | LPO in serum [2] | PL in serum [2] | TC in serum [2] | TG in serum [2] | other results
1 | CCCOc1cc(C=C(C)C(=O)OC2CCC34CC35CCC3(C)C(C(C)CCC=C(C)C)CCC3(C)C5CCC4C2(C)C)ccc1O (stereo not drawn) [Example 146, cycloartenyl ester of 4-hydroxy-3-propoxy-α-methylcinnamic acid] | 106 ± 5.9 g | 149 ± 11.0 g | 193 ± 17.5 g | 243 ± 15.8 g | 271 ± 20.2 g | 258 ± 19.1 g | 7.479 | 23.4 mg/dL | 2.02 nmol/mL | 97.6 mg/dL | 198.4 mg/dL | 51.4 mg/dL | change in vivo at 1 % in diet ([2]; read-out: AI % of diff.): -65.6%; change in vivo at 1 % in diet ([2]; read-out: HDL-C % of diff.): 73.3%; change in vivo at 1 % in diet ([2]; read-out: LPO % of diff.): -28.4%; change in vivo at 1 % in diet ([2]; read-out: PL % of diff.): -30.3%; change in vivo at 1 % in diet ([2]; read-out: TG % of diff.): -9%; AI Diff. [2]: -14.28; HDL-C Diff. [2]: +9.9 mg/dl; LPO Diff. [2]: -0.80 nmol/mL; PL Diff. [2]: -42.5 mg/dL; TC % of diff. [2]: -38.1%; TC Diff. [2]: -108.9 mg/dL; TG Diff. [2]: -5.1 mg/dL
2 | COc1cc(C(=O)OC2CCC34CC35CCC3(C)C(C(C)CCC=C(C)C)CCC3(C)C5CCC4C2(C)C)ccc1N (centres unmarked) [Example 167, cycloartenyl ester of 4-amino-3-methoxy benzoic acid] | 105 ± 3.4 g | 143 ± 10.4 g | 191 ± 18.4 g | 241 ± 21.7 g | 272 ± 20.8 g | 259 ± 20.6 g | 2.405 | 79.6 mg/dL | 2.28 nmol/mL | 126.4 mg/dL | 271.0 mg/dL | 67.1 mg/dL | HDL-C rise compared with normal diet group [2]: remarkable rises
3 | C=C(CCC(C)C1CCC2(C)C3CCC4C(C)(C)C(OC(=O)C(C)=Cc5cc(N)ccc5OCCC)CCC45CC35CCC12C)C(C)C (stereo not drawn) [Example 197, 24-Methylenecycloartanyl ester of 5-amino-2-propoxy-α-methylcinnamic acid] | 104 ± 3.4 g | 142 ± 8.4 g | 188 ± 13.6 g | 239 ± 16.2 g | 268 ± 20.8 g | 257 ± 20.4 g | 7.177 | 27.1 mg/dL | 2.05 nmol/mL | 115.5 mg/dL | 221.6 mg/dL | 61.2 mg/dL | –
4 | COc1ccc(N)cc1C(=O)OC1CCC23CC24CCC2(C)C(C(C)CCC(C)=C(C)C)CCC2(C)C4CCC3C1(C)C (centres unmarked) [Example 173, cyclobranyl ester of 5-amino-2-methoxybenzoic acid] | 105 ± 3.6 g | 142 ± 10.5 g | 190 ± 18.2 g | 240 ± 23.5 g | 271 ± 24.2 g | 258 ± 23.6 g | 3.671 | 58.4 mg/dL | 2.23 nmol/mL | 127.2 mg/dL | 272.8 mg/dL | 65.2 mg/dL | HDL-C rise compared with normal diet group [2]: remarkable rises
5 | CCOc1ccc(N)cc1C=CC(=O)OC1CCC23CC24CCC2(C)C(C(C)CCC=C(C)C)CCC2(C)C4CCC3C1(C)C (centres unmarked) [Example 183, Cycloartenyl ester of 5-amino-2-ethoxycinnamic acid] | 105 ± 3.9 g | 142 ± 8.8 g | 189 ± 11.9 g | 239 ± 16.5 g | 268 ± 20.9 g | 257 ± 18.8 g | 7.356 | 29.2 mg/dL | 2.08 nmol/mL | 125.7 mg/dL | 244.0 mg/dL | 65.2 mg/dL | –
6 | CCC(=Cc1ccc(O)cc1)C(=O)OC1CCC23CC24CCC2(C)C(C(C)CCC=C(C)C)CCC2(C)C4CCC3C1(C)C (stereo not drawn) [Example 130, cycloartenyl ester of 4-hydroxy-α-ethylcinnamic acid] | 105 ± 3.3 g | 144 ± 9.3 g | 194 ± 18.1 g | 245 ± 15.7 g | 271 ± 18.0 g | 258 ± 20.2 g | 8.586 | 21.0 mg/dL | 2.07 nmol/mL | 107.2 mg/dL | 201.3 mg/dL | 53.4 mg/dL | change in vivo at 1 % in diet ([2]; read-out: AI % of diff.): -60.5%; change in vivo at 1 % in diet ([2]; read-out: HDL-C % of diff.): 55.6%; change in vivo at 1 % in diet ([2]; read-out: LPO % of diff.): -26.6%; change in vivo at 1 % in diet ([2]; read-out: PL % of diff.): -23.5%; change in vivo at 1 % in diet ([2]; read-out: TG % of diff.): -5.5%; AI Diff. [2]: -13.17; HDL-C Diff. [2]: +7.5 mg/dl; LPO Diff. [2]: -0.75 nmol/mL; PL Diff. [2]: -32.9 mg/dL; TC % of diff. [2]: -34.5%; TC Diff. [2]: -106.0 mg/dL; TG Diff. [2]: -3.1 mg/dL
7 | CC(=Cc1cccc(N)c1)C(=O)OC1CCC23CC24CCC2(C)C(C(C)CCC(C)=C(C)C)CCC2(C)C4CCC3C1(C)C (stereo not drawn) [Example 212, Cyclobranyl ester of m-amino-α-methylcinnamic acid] | 104 ± 3.3 g | 143 ± 9.2 g | 190 ± 18.6 g | 239 ± 15.8 g | 268 ± 21.4 g | 257 ± 19.0 g | 4.242 | 37.2 mg/dL | 2.01 nmol/mL | 112.9 mg/dL | 195.0 mg/dL | 59.7 mg/dL | –
8 | COc1cc(C=CC(=O)OC2CCC34CC35CCC3(C)C(C(C)CCC=C(C)C)CCC3(C)C5CCC4C2(C)C)ccc1N (centres unmarked) [Example 177, Cycloartenyl ester of 4-amino-3-methoxycinnamic acid] | 104 ± 3.9 g | 142 ± 9.6 g | 187 ± 12.8 g | 238 ± 21.2 g | 267 ± 25.2 g | 256 ± 27.1 g | 6.554 | 32.5 mg/dL | 2.29 nmol/mL | 125.8 mg/dL | 245.5 mg/dL | 63.1 mg/dL | –
